Tests used:
[1] = system: pre-leukemia, or myelodysplastic syndromes(MDS); settings: in vitro; cited from earlier work
leukemic cells = settings: in vitro, small number of patients; cited from earlier work
[2] = Plasma ascorbate level in mice given sodium ascorbate or L-gulono-γ-lactone (HPLC-ECD); settings: 5 mmole/kg, intraperitoneal
Description: Time-dependent changes of plasma ascorbate level in mice given sodium ascorbate (-o-) and L-gulono-γ-lactone (-•-). Drugs were dissolved in distilled water and administered by intraperitoneal injections, both at 5 mmole/kg. Blood was taken from each animal time-sequentially for the assay of plasma ascorbate with HPLC-ECD, as described in MATERIALS AND METHODS. Zero time control animals were given 0.2 ml of normal saline. Data represent Mean±SD (n=3−5).
Specific pathogen-free female BALB/c mice (body weight, ca. 25 g) were used in the present study. Animals were obtained from Dae-Han Laboratory Animal Center (Daejeon, Korea) and cared for according to the ILAR guidelines in the animal care facility of Samsung Biomedical Research Center (Seoul, Korea). They were fed a diet from Jell Laboratory Chow (Seoul, Korea). Feed and water were offered ad libitum.
The animal was anesthetized with diethyl ether vapour and blood was obtained by choroidal venous plexus. About one ml of blood was collected into a microcentrifuge tube that contained 50 μl of 130 mM sodium citrate as an anticoagulant. […] The ascorbate content in the supernatant was measured directly by HPLC method. An aliquot of the sample was treated with 100 mM dithiothreitol at neutral pH to reduce dehydroascorbate to ascorbate, and then total ascorbate content was measured. […]

| Structure (SMILES) | share of MDS showing growth enhancement with LAA [1] | share of MDS showing growth suppression with LAA [1] | fraction of patients whose leukemic cell growth was modulated by LAA (leukemic cells) | return of accumulated plasma ascorbate to normal levels [2] |
| --- | --- | --- | --- | --- |
| O=C1O[C@H]([C@@H](O)CO)C(O)=C1O [LAA, L-ascorbic acid] | 30% | 16% | approximately ½ |  |
| O=C1O[C@H]([C@@H](O)CO)C([O-])=C1O.[Na+] [ascorbate, Sodium ascorbate] |  |  |  | rapidly diminished to normal levels within a few hours |

Reference: patent US6989143B1, “Depletion method of blood plasma ascorbate” (priority 2000, dated 2006)
